According to patent US12077503B2, “Substituted cyclic amides and their use as herbicides” (FMC CORPORATION, priority 2015, dated 2024):

Experiments:
Assay type in all cases: in vivo
[1] = test system: ducksalad (Heteranthera limosa); test: Test B flooded paddy test; conditions: Heteranthera limosa, 360 h, Flood, 250 g ai/ha; visually evaluated after 13 to 15 d; read-out: Plant response rating, Ducksalad (0 to 100 scale where 0 is no effect and 100 is complete control)
Summary of the method: (§1)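 Percent control, visually estimated after 13–15 d in the greenhouse on a 0–100 basis, compares treated pots with untreated ones; compound was put into paddy water 3 cm above the soil when plants had two leaves.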

[2] = test system: barnyardgrass (Echinochloa crus-galli); test: Test B flooded paddy test; conditions: Echinochloa crus-galli, 360 h, Flood, 250 g ai/ha; visually evaluated after 13 to 15 d; read-out: Plant response rating, Barnyardgrass (0 to 100 scale where 0 is no effect and 100 is complete control)
Summary of the method: as §1

rice (Oryra sativa) = test: Test B flooded paddy test; conditions: Oryza sativa, 360 h, Flood, 250 g ai/ha; visually evaluated after 13 to 15 d; read-out: Plant response rating, Rice (0 to 100 scale where 0 is no effect and 100 is complete control)
Summary of the method: as §1

[3] = test system: sedge, umbrella (small-flower umbrella sedge, Cyperus difformis); test: Test B flooded paddy test; conditions: Cyperus difformis, 360 h, Flood, 250 g ai/ha; visually evaluated after 13 to 15 d; read-out: Plant response rating, Sedge, Umbrella (0 to 100 scale where 0 is no effect and 100 is complete control)
Summary of the method: as §1

[4] = test system: ryegrass, Italian (Italian ryegrass, Lolium multiflorum); test: Test A preemergence; conditions: Lolium multiflorum, pre-emergence, 240 h, Preemergence
Summary of the method: (§2)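 Visual injury scores from 0, no effect, to 100, complete control, were assigned versus untreated controls roughly 10 d after treatment in the greenhouse. Test chemicals, formulated with surfactant in a non-phytotoxic solvent, were applied to planted seeds as a preemergence soil spray or postemergence to one- to two-leaf plants 2 to 10 cm tall, in loam–sand soil.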

[5] = test system: giant foxtail (Setaria faberii); test: Test A preemergence; conditions: Setaria faberi, pre-emergence, 240 h, Preemergence
Summary of the method: as §2

Kochia (Kochia scoparia) [6] = test: Test A preemergence; conditions: Bassia scoparia, pre-emergence, 240 h, Preemergence
Summary of the method: as §2

[7] = test system: pigweed (Amaranthus retroflexus); test: Test A preemergence; conditions: Amaranthus retroflexus, pre-emergence, 240 h, Preemergence
[8] = test system: ragweed (common ragweed, Ambrosia elatior); test: Test A preemergence; conditions: Ambrosia artemisiifolia, pre-emergence, 240 h, Preemergence
Summary of the method: as §2

[9] = test system: barnyardgrass (Echinochloa crus-galli); test: Test A preemergence; conditions: Echinochloa crus-galli, pre-emergence, 240 h, Preemergence
Summary of the method: as §2

[10] = test system: ryegrass, Italian (Italian ryegrass, Lolium multiflorum); test: Test A postemergence; conditions: Lolium multiflorum, post-emergence, 240 h, Postemergence, read-out: Ryegrass, Italian plant response rating (0 to 100 scale)
Summary of the method: as §2

[11] = test system: giant foxtail (Setaria faberii); test: Test A postemergence; conditions: Setaria faberi, post-emergence, 240 h, Postemergence, read-out: Foxtail, Giant plant response rating (0 to 100 scale)
Summary of the method: as §2

Kochia (Kochia scoparia) [12] = test: Test A postemergence; conditions: Bassia scoparia, post-emergence, 240 h, Postemergence, read-out: Kochia plant response rating (0 to 100 scale)
Summary of the method: as §2

[13] = test system: pigweed (Amaranthus retroflexus); test: Test A postemergence; conditions: Amaranthus retroflexus, post-emergence, 240 h, Postemergence, read-out: Pigweed plant response rating (0 to 100 scale)
Summary of the method: as §2

[14] = test system: ragweed (common ragweed, Ambrosia elatior); test: Test A postemergence; conditions: Ambrosia artemisiifolia, post-emergence, 240 h, Postemergence, read-out: Ragweed plant response rating (0 to 100 scale)
Summary of the method: as §2

[15] = test system: barnyardgrass (Echinochloa crus-galli); test: Test A postemergence; conditions: Echinochloa crus-galli, post-emergence, 240 h, Postemergence
Summary of the method: as §2

[16] = test system: Galium (catchweed bedstraw, Galium aparine); test: Test A postemergence; conditions: Galium, post-emergence, 240 h, Postemergence, read-out: Galium plant response rating (0 to 100 scale)
Summary of the method: as §2

corn (Zea mays) = test: Test A postemergence; conditions: Zea mays, post-emergence, 240 h, Postemergence, read-out: Corn plant response rating (0 to 100 scale)
Summary of the method: as §2

[17] = test system: wheat (Triticum aestivum); test: Test A postemergence; conditions: Triticum aestivum, post-emergence, 240 h, Postemergence, read-out: Wheat plant response rating (0 to 100 scale)
Summary of the method: as §2

[18] = test system: blackgrass (Alopecurus myosuroides); test: Test A postemergence; conditions: Alopecurus myosuroides, post-emergence, 240 h, Postemergence, read-out: Blackgrass plant response rating (0 to 100 scale)
Summary of the method: as §2

[19] = 125 g ai/ha, visual rating about 10 d after treatment
[20] = 31 g ai/ha, 0 is no effect, 100 is complete control

SMILES: CN1C[C@H](c2ccc3c(c2)OC(F)(F)O3)[C@@H](C(=O)Nc2cnccc2C(F)(F)F)C1=O [Compound 1354]
- pest or weed control at 250 g/ha [1]: 0%
- pest or weed control at 250 g/ha [2]: 0%
- pest or weed control at 250 g/ha (rice (Oryra sativa)): 0%
- pest or weed control at 250 g/ha [3]: 0%
- pest or weed control at 31 g/ha ([4]; 31 g ai/ha, 0 to 100 scale where 0 is no effect and 100 is complete control, read-out: Ryegrass, Italian plant response rating): 0%
- pest or weed control at 125 g/ha ([4]; 125 g ai/ha, 0 to 100 scale (0 no effect, 100 complete control), read-out: Plant response rating, Ryegrass, Italian): 20%
- pest or weed control at 31 g/ha ([5]; 31 g ai/ha, 0 to 100 scale where 0 is no effect and 100 is complete control, read-out: Foxtail, Giant plant response rating): 30%
- pest or weed control at 125 g/ha ([5]; 125 g ai/ha, 0 to 100 scale (0 no effect, 100 complete control), read-out: Plant response rating, Foxtail, Giant): 100%
- pest or weed control at 31 g/ha (Kochia (Kochia scoparia) [6]; 31 g ai/ha, 0 to 100 scale where 0 is no effect and 100 is complete control, read-out: Kochia plant response rating): 0%
- pest or weed control at 125 g/ha (Kochia (Kochia scoparia) [6]; 125 g ai/ha, 0 to 100 scale (0 no effect, 100 complete control), read-out: Plant response rating, Kochia): 20%
- pest or weed control at 31 g/ha ([7]; 31 g ai/ha, 0 to 100 scale where 0 is no effect and 100 is complete control, read-out: Pigweed plant response rating): 0%
- pest or weed control at 125 g/ha ([7]; 125 g ai/ha, 0 to 100 scale (0 no effect, 100 complete control), read-out: Plant response rating, Pigweed): 20%
- pest or weed control at 31 g/ha ([8]; 31 g ai/ha, 0 to 100 scale where 0 is no effect and 100 is complete control, read-out: Ragweed plant response rating): 20%
- pest or weed control at 125 g/ha ([8]; 125 g ai/ha, 0 to 100 scale (0 no effect, 100 complete control), read-out: Plant response rating, Ragweed): 0%
- pest or weed control at 31 g/ha ([9]; 31 g ai/ha, 0 to 100 scale where 0 is no effect and 100 is complete control, read-out: Barnyardgrass plant response rating): 0%
- pest or weed control at 125 g/ha ([9]; 125 g ai/ha, 0 to 100 scale (0 no effect, 100 complete control), read-out: Plant response rating, Barnyardgrass): 80%
- pest or weed control at 125 g/ha [10, 19]: 0%
- pest or weed control at 31 g/ha [10, 20]: 0%
- pest or weed control at 125 g/ha [11, 19]: 60%
- pest or weed control at 31 g/ha [11, 20]: 0%
- pest or weed control at 125 g/ha (Kochia (Kochia scoparia) [12]; [19]): 20%
- pest or weed control at 31 g/ha (Kochia (Kochia scoparia) [12]; [20]): 0%
- pest or weed control at 125 g/ha [13, 19]: 0%
- pest or weed control at 31 g/ha [13, 20]: 0%
- pest or weed control at 125 g/ha [14, 19]: 0%
- pest or weed control at 31 g/ha [14, 20]: 0%
- pest or weed control at 125 g/ha ([15]; 125 g ai/ha, visual rating about 10 d after treatment, read-out: Barnyardgrass plant response rating (0 to 100 scale, 0 no effect, 100 complete control)): 20%
- pest or weed control at 31 g/ha ([15]; 31 g ai/ha, 0 is no effect, 100 is complete control, read-out: Barnyardgrass plant response rating (0 to 100 scale)): 0%
- pest or weed control at 125 g/ha [16, 19]: 40%
- pest or weed control at 31 g/ha [16, 20]: 20%
- plant injury at 125 g/ha (corn (Zea mays); [19]): 0%
- plant injury at 31 g/ha (corn (Zea mays); [20]): 0%
- plant injury at 125 g/ha [17, 19]: 0%
- plant injury at 31 g/ha [17, 20]: 0%
- pest or weed control at 125 g/ha [18, 19]: 0%
- pest or weed control at 31 g/ha [18, 20]: 0%
